The first assay deals with MHC-I expression by COLO 205 cells. In words: cells. It counts as cell-based, human.
Details: not given
How it is done:
A panel of synthetic cannabinoids (Cayman Chemical, #9002891) was tested for MHC class I-inducing capability in COLO 205 cells as described above. COLO 205 cells were treated with the compounds at a concentration of 35 μM and evaluated for cell surface MHC class I expression after 48 hours. Cells were harvested, stained with MHC-I mAb W6/32 (Thermo Fisher). MHC-I expression was determined by flow cytometry.
As to `CS(=O)(=O)O.Cc1c(C(=O)c2cccc3ccccc23)c2cccc3c2n1C(CN1CCOCC1)CO3` (stereo not shown) [Example 376, [2,3-dihydro-5-methyl-3-(4-morpholinylmethyl)pyrrolo[1,2,3-de]-1,4-benzoxazin-6-yl]-1-naphthalenyl-methanone, methanesulfonate], the “Induction Fold” value was found to be 0.32 Fold.
For “(1-heptyl-5-phenyl-1H-pyrrol-3-yl)-1-naphthalenyl-methanone [Example 212]”, the “Induction Fold” value is 1.83 Fold.

Staying with this assay, now noted: Homo sapiens, COLO 205, 48 h, MHC-I expression, COLO 205 cells, compounds at 35 μM, 48 hours, flow cytometry (W6/32); read-out: Induction Fold.
For the molecule `CCCCCn1cccc1C(=O)c1cccc2ccccc12` [Example 178, naphthalen-1-yl(1-pentyl-1H-pyrrol-2-yl)methanone], the fold induction at 35 µM was determined as 1.94.
For the molecule `CCOc1ccc(Cc2nc3cc(C(=O)N(CC)CC)ccc3n2CC2CCCCC2)cc1` [Example 363, 1-(cyclohexylmethyl)-2-[(4-ethoxyphenyl)methyl]-N,N-diethyl-1H-benzimidazole-5-carboxamide], the fold induction at 35 µM is 0.92.
Same read-out and setting: then `CCCCCn1cc(C(=O)c2ccccc2OC)c2ccccc21` [Example 20, (2-methoxyphenyl)(1-pentyl-1H-indol-3-yl)-methanone], with 3.98; and `CN1CCCCC(Cn2cc(C(=O)c3cccc4ccccc34)c3ccccc32)C1` (stereo not shown) [Example 6, (1-((1-methylazepan-3-yl)methyl)-1H-indol-3-yl)(naphthalen-1-yl)methanone], with 5.6; and `CC(C)(C)C(NC(=O)c1cn(CCCCCF)c2ccccc12)C(N)=O` (stereo not shown) [Example 297, N-[1-(aminocarbonyl)-2,2-dimethylpropyl]-1-(5-fluoropentyl)-1H-indole-3-carboxamide], with 1.42.
As for `CC1(C)C(C(=O)c2nn(CCCCCF)c3ccccc23)C1(C)C` [Example 185, (1-(5-fluoropentyl)-1H-indazol-3-yl)(2,2,3,3-tetramethylcyclopropyl)methanone], the fold induction at 35 µM stood at 1.9.
As to `CC(C)(NC(=O)c1nn(CCCCC#N)c2ccccc12)c1ccccc1` [Example 281, 1-(4-cyanobutyl)-N-(1-methyl-1-phenylethyl)-1H-indazole-3-carboxamide], the fold induction at 35 µM is 1.48.
On the same count and under the same terms, then `O=C(c1ccc2ccccc2c1)c1cn(CCN2CCOCC2)c2ccccc12` [Example 13, [1-[2-(4-morpholinyl)ethyl]-1H-indol-3-yl]-2-naphthalenyl-methanone], with 4.3.
The same measure, in the same setting: then `CC(C)[C@H](NC(=O)c1cn(Cc2ccccc2)c2ccccc12)C(N)=O` [Example 323, N-[(1S)-1-(aminocarbonyl)-2-methylpropyl]-1-(phenylmethyl)-1H-indole-3-carboxamide], with 1.26.
On the same count and under the same terms, the same measure for `CCCCCn1cc(C(=O)c2cccc3cc(CC)ccc23)c2ccccc21` [Example 275, (6-ethylnaphthalen-1-yl)(1-pentyl-1H-indol-3-yl)methanone]: 1.52.
On to `CC(C)(C)C(NC(=O)c1nn(CCCCCF)c2ccccc12)C(N)=O` (stereo not shown) [Example 289, N-[1-(aminocarbonyl)-2,2-dimethylpropyl]-1-(5-fluoropentyl)-1H-indazole-3-carboxamide], for which the fold induction at 35 µM was 1.44.
On the same count and under the same terms, the same measure for `CCCCCn1cc(C(=O)C2C(C)(C)C2(C)C)c2ccccc21` [Example 94, (1-pentyl-1H-indol-3-yl)(2,2,3,3-tetramethylcyclopropyl)-methanone]: 2.45; for `COC(=O)[C@@H](NC(=O)c1cn(CCCCCF)c2ccccc12)C(C)C` [Example 354, N-[[1-(5-fluoropentyl)-1H-indol-3-yl]carbonyl]-L-valine, methyl ester]: 1.05; for `CCCCCn1cc(C(=O)Cc2ccc(Cl)cc2)c2ccccc21` [Example 64, 2-(4-chlorophenyl)-1-(1-pentyl-1H-indol-3-yl)-ethanone]: 2.77.
Still for that read-out and setting: the same measure for `O=C(c1ccc(I)cc1)c1cn(CCCCCF)c2ccccc12` [Example 283, (1-(5-fluoropentyl)-1H-indol-3-yl)(4-iodophenyl)methanone]: 1.46; for `O=C(Oc1cccc2cnccc12)c1cn(CCCCCF)c2ccccc12` [Example 105, isoquinolin-5-yl 1-(5-fluoropentyl)-1H-indole-3-carboxylate]: 2.4.
Same read-out and setting: then `CC(C)[C@H](NC(=O)c1c2ccccc2nn1CC1CCCCC1)C(N)=O` [Example 343, (S)-N-(1-amino-3-methyl-1-oxobutan-2-yl)-2-(cyclohexylmethyl)-2H-indazole-3-carboxamide], with 1.14; and `CN1CCCCC1Cn1cc(C(=O)C23CC4CC(CC(C4)C2)C3)c2ccccc21` (stereo not shown) [Example 68, [1-[(1-methyl-2-piperidinyl)methyl]-1H-indol-3-yl]tricyclo[3.3.1.13,7]dec-1-yl-methanone], with 2.72; and `CCC(CC)n1cc(C(=O)c2cccc3ccccc23)c2ccccc21` [Example 48, naphthalen-1-yl(1-(pentan-3-yl)-1H-indol-3-yl)methanone], with 3.
For the molecule `CCCCCn1c(C)c(C(=O)c2ccc(OC)c3ccccc23)c2ccccc21` [Example 372, (4-methoxy-1-naphthalenyl)(2-methyl-1-pentyl-1H-indol-3-yl)-methanone], the fold induction at 35 µM is 0.6.
In the case of `CCCCCn1nc(C(=O)N[C@@H](CCCC)C(N)=O)c2ccccc21` (single isomer, unassigned) [Example 11], the fold induction at 35 µM came out at 4.56.
The same measure, in the same setting: the same measure for `CC(Cl)CCCn1cc(C(=O)C2C(C)(C)C2(C)C)c2ccccc21` (stereo not shown) [Example 113, (1-(4-chloropentyl)-1H-indol-3-yl)(2,2,3,3-tetramethylcyclopropyl)methanone]: 2.36; for `COc1cccc2c(C(=O)N[C@@H]3C(C)(C)[C@@H]4CC[C@@]3(C)C4)cn(CCN3CCOCC3)c12` [Example 43, 7-methoxy-1-[2-(4-morpholinyl)ethyl]-N-[(1S,2 S,4R)-1,3,3-trimethylbicyclo[2.2.1]hept-2-yl]-1H-indole-3-carboxamide]: 3.06; for `CC1(C)C(C(=O)c2cn(CC3CCOCC3)c3ccccc23)C1(C)C` [Example 260, [1-[(tetrahydro-2H-pyran-4-yl)methyl]-1H-indol-3-yl](2,2,3,3-tetramethylcyclopropyl)-methanone]: 1.57.
In the case of `CCCCCn1cc(C(=O)c2ccc(F)c3ccccc23)c2ccccc21` [Example 150, (4-fluoro-1-naphthalenyl)(1-pentyl-1H-indol-3-yl)-methanone], the fold induction at 35 µM is 2.14.
The same measure, in the same setting: the same measure for `O=C(Oc1ccc2cnccc2c1)c1cn(CCCCCF)c2ccccc12` [Example 218, isoquinolin-6-yl 1-(5-fluoropentyl)-1H-indole-3-carboxylate]: 1.78.
Same read-out and setting: then `CCCCCn1cc(C(=O)NCc2ccccc2)c2ccccc21` [Example 91, 1-pentyl-N-(phenylmethyl)-1H-indole-3-carboxamide], with 2.48.

Still in this assay, the particulars now being: MHC-I expression, COLO 205 cells, compounds at 35 μM, 48 hours, flow cytometry (W6/32).
Turning to `CCCCCn1nc(C(=O)c2cccc3ccccc23)c2ccccc21` [Example 149, 1-naphthalenyl(1-pentyl-1H-indazol-3-yl)-methanone], the “Induction Fold” value is 2.14 Fold.
For `CCCCCCN1C(=O)/C(=N\NC(=O)c2ccccc2)c2ccccc21` [Example 125, (2Z)-2-(1-hexyl-1,2-dihydro-2-oxo-3H-indol-3-ylidene)hydrazide, benzoic acid], the “Induction Fold” value is 2.29 Fold.

(Values after US20210038559A1, “CANNABINOIDS AND DERIVATIVES FOR PROMOTING IMMUNOGENICITY OF TUMOR AND INFECTED CELLS” (priority 2018, published 2021).)
